Test results reported in ChEMBL document CHEMBL4038290, “Structure activity relationship and optimization of N-(3-(2-aminothiazol-4-yl)aryl)benzenesulfonamides as anti-cancer compounds against sensitive and resistant cells” (Bioorg Med Chem Lett, 2017).
The source made the active and inactive calls. No cut-off for these calls is given here.

How the values were obtained:
A-375 [1] = experiment: Antiproliferative activity against human A375 cells assessed as cell viability at 10 uM after 48 hrs by trypan blue exclusion assay; type: functional; details: A-375, 48 h, read-out: Activity
A-375 [2] = experiment: Antiproliferative activity against human A375 cells assessed as cell viability at 5 uM after 48 hrs by trypan blue exclusion assay; type: functional; details: A-375, 48 h, read-out: Activity
A-375 [3] = experiment: Antiproliferative activity against human A375 cells assessed as cell viability at 1 uM after 48 hrs by trypan blue exclusion assay; type: functional; details: for viability at 1 µM: A-375, 48 h, read-out: Activity
A-375 [4] = experiment: Antiproliferative activity against human A375 cells after 48 hrs by trypan blue exclusion assay; type: functional, cell-based; details: A-375, 48 h
BXPC-3 = experiment: Growth inhibition of human BxPC3 cells assessed as cell viability at 10 uM after 48 hrs by trypan blue exclusion assay; type: functional; details: BXPC-3, 48 h, read-out: Activity
MIA PaCa-2 = experiment: Growth inhibition of gemcitabine-resistant human MIAPaCa2 cells assessed as cell viability at 10 uM after 48 hrs by trypan blue exclusion assay relative to control; type: functional; details: MIA PaCa-2, 48 h, read-out: Activity
[5] = Growth inhibition of human A375 RIV cells assessed as cell viability at 10 uM after 48 hrs by trypan blue exclusion assay; type: functional; details: A-375, 48 h, read-out: Activity
[6] = Growth inhibition of human A375 R5C3 cells assessed as cell viability at 10 uM after 48 hrs by trypan blue exclusion assay; type: functional; details: A-375, 48 h, read-out: Activity
K562 = experiment: Growth inhibition of human K562 cells assessed as cell viability at 10 uM after 48 hrs by trypan blue exclusion assay; type: functional; details: K562, 48 h, read-out: Activity
K-562R = experiment: Growth inhibition of human K562R cells assessed as cell viability at 10 uM after 48 hrs by trypan blue exclusion assay; type: functional; details: read-out: Activity
[7] = biological target: T1, Eukaryotic translation initiation factor 2-alpha kinase 3 (Homo sapiens) (UniProt Q9NZJ5); experiment: Activation of PERK in human A375 cells at 2.5 to 10 uM after 12 hrs by Western blot analysis; type: cell-based
T1 sequence (whole entry): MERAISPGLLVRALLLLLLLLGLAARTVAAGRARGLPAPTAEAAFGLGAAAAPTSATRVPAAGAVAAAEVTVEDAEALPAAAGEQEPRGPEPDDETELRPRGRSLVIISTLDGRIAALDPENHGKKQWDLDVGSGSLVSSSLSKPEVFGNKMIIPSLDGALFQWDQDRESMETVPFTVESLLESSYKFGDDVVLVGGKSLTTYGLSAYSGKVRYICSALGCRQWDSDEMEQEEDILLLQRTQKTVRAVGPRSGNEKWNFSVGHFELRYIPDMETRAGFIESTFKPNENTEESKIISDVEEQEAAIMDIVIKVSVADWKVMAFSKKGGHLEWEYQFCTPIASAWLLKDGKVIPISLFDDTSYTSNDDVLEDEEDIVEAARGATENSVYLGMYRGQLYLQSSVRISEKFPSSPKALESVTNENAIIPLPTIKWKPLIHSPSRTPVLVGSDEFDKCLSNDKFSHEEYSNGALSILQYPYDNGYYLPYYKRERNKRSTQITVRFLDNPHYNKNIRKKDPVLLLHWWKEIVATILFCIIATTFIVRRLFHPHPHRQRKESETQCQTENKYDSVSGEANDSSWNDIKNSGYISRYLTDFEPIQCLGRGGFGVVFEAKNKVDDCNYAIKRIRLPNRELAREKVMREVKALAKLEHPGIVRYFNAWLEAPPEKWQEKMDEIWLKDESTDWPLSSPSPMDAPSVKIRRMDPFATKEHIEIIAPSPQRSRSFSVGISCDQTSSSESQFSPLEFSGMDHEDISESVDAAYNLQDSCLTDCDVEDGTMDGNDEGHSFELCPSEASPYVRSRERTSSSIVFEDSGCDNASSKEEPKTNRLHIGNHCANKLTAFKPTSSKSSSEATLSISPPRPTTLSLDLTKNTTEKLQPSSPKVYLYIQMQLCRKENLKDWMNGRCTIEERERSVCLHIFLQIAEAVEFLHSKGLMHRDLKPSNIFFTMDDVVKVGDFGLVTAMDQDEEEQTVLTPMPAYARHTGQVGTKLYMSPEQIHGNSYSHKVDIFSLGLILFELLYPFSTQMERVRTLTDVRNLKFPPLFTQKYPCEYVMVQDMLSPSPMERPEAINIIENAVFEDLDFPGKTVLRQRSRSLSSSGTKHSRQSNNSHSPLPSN

[8] = biological target: T1, Eukaryotic translation initiation factor 2-alpha kinase 3 (Homo sapiens); experiment: Activation of PERK in human A375 cells assessed as increase in CHOP expression at 2.5 to 10 uM after 12 hrs by Western blot analysis; type: cell-based
A-375 [9] = experiment: Induction of apoptosis in human A375 cells assessed as cleavage of PARP protein at 2.5 to 10 uM after 12 hrs by Western blot analysis; type: functional, cell-based
A-375 [10] = experiment: Induction of autophagy in human A375 cells assessed as increase in conversion of LC3-I to LC3-II at 2.5 to 10 uM after 12 hrs by Western blot analysis; type: functional, cell-based
A-375 [11] = experiment: Induction of autophagy in human A375 cells assessed as increase in conversion of LC3-I to LC3-II at 1 to 5 uM after 24 hrs by Western blot analysis; type: functional, cell-based
[12] = biological target: T1, Eukaryotic translation initiation factor 2-alpha kinase 3 (Homo sapiens); experiment: Activation of PERK in human A375 cells at 1 to 2.5 uM after 48 hrs by Western blot analysis; type: cell-based
[13] = biological target: T1, Eukaryotic translation initiation factor 2-alpha kinase 3 (Homo sapiens); experiment: Activation of PERK in human A375 cells assessed as increase in CHOP expression at 1 to 2.5 uM after 48 hrs by Western blot analysis; type: cell-based
A-375 [14] = experiment: Induction of autophagy in human A375 cells assessed as increase in conversion of LC3-I to LC3-II at 1 to 2.5 uM after 48 hrs by Western blot analysis; type: functional, cell-based

CC(=O)Nc1nc(-c2cccc(NS(=O)(=O)c3cccc(C#C[Si](C)(C)C)c3)c2)cs1
viability at 10 µM (A-375 [1]): 5.8% | viability at 5 µM (A-375 [2]): < 1% | viability at 1 µM (A-375 [3]): 61.6%

CC(=O)Nc1nc(-c2cccc(NS(=O)(=O)c3ccc(C#CC4CCCCC4)cc3)c2)cs1
viability at 10 µM (A-375 [1]): 1.2% | viability at 5 µM (A-375 [2]): 1.2% | viability at 1 µM (A-375 [3]): 52.3%

CCCCCCCCC#Cc1ccc(S(=O)(=O)Nc2cccc(-c3csc(NC(C)=O)n3)c2)cc1
viability at 10 µM (A-375 [1]): < 1% | viability at 5 µM (A-375 [2]): 8.9% | viability at 1 µM (A-375 [3]): 39.6%

CCCCCCC#Cc1cccc(S(=O)(=O)Nc2cccc(-c3csc(NC(C)=O)n3)c2)c1
viability at 10 µM (A-375 [1]): < 1% | viability at 5 µM (A-375 [2]): 1.2% | viability at 1 µM (A-375 [3]): 56.9%

CC(=O)Nc1nc(-c2cccc(NS(=O)(=O)c3cccc(Br)c3)c2)cs1
viability at 10 µM (A-375 [1]): 36% | viability at 5 µM (A-375 [2]): 67.4% | Activity (A-375 [3]): inactive

CC(=O)Nc1nc(-c2cccc(NS(=O)(=O)c3cccc(C#CCO)c3)c2)cs1
viability at 10 µM (A-375 [1]): 45.3% | viability at 5 µM (A-375 [2]): 66.2% | viability at 1 µM (A-375 [3]): 85.4% | EC50 (A-375 [4]): 10 µM

C#Cc1cccc(S(=O)(=O)Nc2cccc(-c3csc(NC(C)=O)n3)c2)c1
viability at 10 µM (A-375 [1]): 18.6% | viability at 5 µM (A-375 [2]): 29% | viability at 1 µM (A-375 [3]): 74.3%

CCCCCCC#Cc1ccc(S(=O)(=O)Nc2cccc(-c3csc(NC)n3)c2)cc1
viability at 10 µM (A-375 [1]): 1.2% | viability at 5 µM (A-375 [2]): 8.1% | viability at 1 µM (A-375 [3]): 36.6%

CCCCCCC#Cc1ccc(S(=O)(=O)Nc2cccc(-c3csc(NC(C)=O)n3)c2)cc1
viability at 10 µM (A-375 [1]): 5.8% | viability at 5 µM (A-375 [2]): 12.8% | viability at 1 µM (A-375 [3]): 40.7%

CCCCCC/C=C\c1ccc(S(=O)(=O)Nc2cccc(-c3csc(NC(C)=O)n3)c2)cc1
viability at 10 µM (BXPC-3): 2% | viability at 10 µM (MIA PaCa-2): 11.4% | viability at 5 µM (A-375 [2]): 2.3% | viability at 1 µM (A-375 [3]): 48.8% | viability at 10 µM [5]: < 1% | viability at 10 µM [6]: < 1% | viability at 10 µM (K562): 8.9% | viability at 10 µM (K-562R): 41.1%

CCCCCCC#Cc1ccc(S(=O)(=O)Nc2cccc(-c3csc(N)n3)c2)cc1
viability at 10 µM (A-375 [1]): 3.5% | viability at 5 µM (A-375 [2]): < 1% | viability at 1 µM (A-375 [3]): 97.6%

CCCCCCC#Cc1ccc(S(=O)(=O)Nc2cccc(-c3csc(Nc4ccccc4)n3)c2)cc1
viability at 10 µM (A-375 [1]): 5.8% | viability at 5 µM (A-375 [2]): 59.2% | viability at 1 µM (A-375 [3]): 87.1%

CC(=O)Nc1nc(-c2cccc(NS(=O)(=O)c3ccc(Br)cc3)c2)cs1
viability at 10 µM (A-375 [1]): 25.6% | viability at 5 µM (A-375 [2]): 19.7% | Activity (A-375 [3]): inactive

CCCCC#Cc1ccc(S(=O)(=O)Nc2cccc(-c3csc(NC(C)=O)n3)c2)cc1
viability at 10 µM (A-375 [1]): < 1% | viability at 5 µM (A-375 [2]): 9.3% | viability at 1 µM (A-375 [3]): 73.2%

CC(=O)Nc1nc(-c2cccc(NS(=O)(=O)c3ccc(C#C[Si](C)(C)C)cc3)c2)cs1
viability at 10 µM (A-375 [1]): < 1% | viability at 5 µM (A-375 [2]): 4.2% | viability at 1 µM (A-375 [3]): 94.3%

CCCCCCCCc1ccc(S(=O)(=O)Nc2cccc(-c3csc(NC(C)=O)n3)c2)cc1
Activity [7]: Active | viability at 10 µM (BXPC-3): 4.9% | viability at 10 µM (MIA PaCa-2): 11.4% | viability at 10 µM (A-375 [1]): < 1% | viability at 5 µM (A-375 [2]): < 1% | viability at 1 µM (A-375 [3]): 34.8% | viability at 10 µM [5]: 2.6% | viability at 10 µM [6]: 1.4% | viability at 10 µM (K562): 3.8% | viability at 10 µM (K-562R): 10.1% | Activity [8]: Active | Activity (A-375 [9]): Active | Activity (A-375 [10]): Active | Activity (A-375 [11]): Active | Activity [12]: Active | Activity [13]: Active | Activity (A-375 [14]): Active

CCCCCCc1ccc(S(=O)(=O)Nc2cccc(-c3csc(NC(C)=O)n3)c2)cc1
viability at 10 µM (BXPC-3): 5.9% | viability at 10 µM (MIA PaCa-2): 1.3% | viability at 5 µM (A-375 [2]): < 1% | viability at 1 µM (A-375 [3]): 49.9% | viability at 10 µM [5]: 3.4% | viability at 10 µM [6]: 1.4% | viability at 10 µM (K562): 23.2% | viability at 10 µM (K-562R): 41.6%

CC(=O)Nc1nc(-c2cccc(NS(=O)(=O)c3ccc(C#CCO)cc3)c2)cs1
viability at 10 µM (A-375 [1]): 48.8% | viability at 5 µM (A-375 [2]): 99.3% | viability at 1 µM (A-375 [3]): 81.3% | EC50 (A-375 [4]): 10 µM

CC(=O)Nc1nc(-c2cccc(NS(=O)(=O)c3ccc(C#CCCc4ccccc4)cc3)c2)cs1
viability at 10 µM (A-375 [1]): < 1% | viability at 5 µM (A-375 [2]): 4.2% | viability at 1 µM (A-375 [3]): 11.5%

C#Cc1ccc(S(=O)(=O)Nc2cccc(-c3csc(NC(C)=O)n3)c2)cc1
viability at 10 µM (A-375 [1]): 1.2% | viability at 5 µM (A-375 [2]): 38.3% | viability at 1 µM (A-375 [3]): 59.2%
